Values quoted from earlier work as cited in US8785426B1, “Testosterone gel compositions and related methods” (Upsher-Smith Laboratories, Inc., priority 2013, dated 2014).

Details: reported solubility

For `C[C@]12CC[C@H]3[C@@H](CCC4=CC(=O)CC[C@@]43C)[C@@H]1CC[C@@H]2O` [Testosterone, 17-β-hydroxyandrost-4-en-3-one], the “solubility in ethyl alcohol” value is given as 0.17 grams per gram ethyl alcohol.
